Results published in US20220409587A1, “METHODS OF TREATING HIV-1 INFECTION” (BIOTRON LIMITED, priority 2019, published 2022).
Entries after “also recorded” stand apart in the source; their conditions may differ.

Experiments:
IL-17F = assay: Phase 2 study: plasma Th17 related cytokines (MSD U-Plex), IL-17F; assay type: in vivo, human; settings: BIT225 cohort vs placebo (data not shown)
Procedure: (§1) A Phase 2, multi-centre, randomized, placebo-controlled, double-blind study of BIT225 in combination with ART (Atripla—efavirenz/emtricitabine/tenofovir DF) was undertaken in patients with HIV-1 infection that were treatment-naive. Patients were randomized into two groups on a 2:1 basis, with one group receiving BIT225 (100 mg QD; 6 patients: placebo; 3 patients), and one group receiving BIT225 (200 mg QD, 18 patients: placebo; 9 patients), with a total of 36 patients enrolled in the trial. The 100 mg BIT225 group was primarily included for detailed PK analyses due to limitations on the quantity of blood that could be drawn at time points coinciding with analyses of viral load decay, which were limited to the 200 mg cohort. All subjects received the standard dose of ART in addition to 12 weeks BIT225 or placebo study treatment. […]
(§2) Th17 cells regulate other immune cells, specifically neutrophils and macrophages, by secreting a variety of cytokines in response to pathogens. Plasma samples were analysed to determine the level of the Th17 related cytokines (IL-21, IFN-γ, IL-1p, IL-6, IL-10, IL-17A, IL-17E/IL-25, IL-17F, IL-22, and TNF-α) during the 12 week treatment period using electro-chemiluminescence MSD U-Plex Biomarker Group Th17 (Human Combo 2) Human Multiplex Assay (MesoScaleDiscovery, MD, USA).

TNF-α = assay: Phase 2 study: plasma Th17 related cytokines (MSD U-Plex), TNF-α; assay type: in vivo, human; settings: BIT225 cohort vs placebo (data not shown)
Procedure: as §1, §2

IL-1 B = assay: Phase 2 study: plasma Th17 related cytokines (MSD U-Plex), IL-1 B; assay type: in vivo, human; settings: BIT225 cohort vs placebo (data not shown)
Procedure: as §1, §2

[1] = Phase 2 study: safety and tolerability; assay type: in vivo, human
Procedure: (§3) A Phase 2, multi-centre, randomized, placebo-controlled, double-blind study of BIT225 in combination with ART (Atripla—efavirenz/emtricitabine/tenofovir DF) was undertaken in patients with HIV-1 infection that were treatment-naive. Patients were randomized into two groups on a 2:1 basis, with one group receiving BIT225 (100 mg QD; 6 patients: placebo; 3 patients), and one group receiving BIT225 (200 mg QD, 18 patients: placebo; 9 patients), with a total of 36 patients enrolled in the trial. The 100 mg BIT225 group was primarily included for detailed PK analyses due to limitations on the quantity of blood that could be drawn at time points coinciding with analyses of viral load decay, which were limited to the 200 mg cohort. All subjects received the standard dose of ART in addition to 12 weeks BIT225 or placebo study treatment. At the conclusion of the trial, patients remained on ART as per standard treatment protocols. HIV-1-infected subjects, males and females, aged 18 to 65 years inclusive, who were naive to ART were recruited. Individuals had HIV-1 RNA>5,000 copies/mL and CD4^+ T cell count>100 cells/mm^3.
There were two treatment cohorts. The first cohort received 100 mg capsule of BIT225 or placebo QD with ART for 12 weeks. Cohort 2 were given two 100 mg capsules BIT225 (200 mg BIT225) or placebo QD with ART. ART was 1 fixed dose combination tablet of Atripla.
The safety of the experimental treatments was assessed by monitoring adverse events, vital signs, ECG parameters, clinical laboratory tests (haematology, clinical chemistry, coagulation and urinalysis) and physical examinations.

[2] = Phase 2 study: pharmacokinetics (plasma, LC/MS/MS); assay type: in vivo, human
Procedure: as §3
There were two treatment cohorts. The first cohort received 100 mg capsule of BIT225 or placebo QD with ART for 12 weeks. Cohort 2 were given two 100 mg capsules BIT225 (200 mg BIT225) or placebo QD with ART. ART was 1 fixed dose combination tablet of Atripla. […]

[3] = test system: CD28 on CD4^+ T cells infected with HIV-1 NL4-3; assay: Plasma membrane CD28 expression on HIV-1 NL4-3 infected CD4+ T cells, flow cytometry; assay type: cell-based, human; settings: 3 μM BIT225, WT HIV-1 NL4-3 infected cells, up to 72 h; dependent on Vpu expression
Procedure: (§4) Method of virus stock generation is as described by Bobardt et al., PNAS, 2008; 105(14):5525-5530. Briefly, 293T cells were transfected with proviral plasmid (9 μg) and vesicular stomatitis virus G (VSV-G) envelope plasmid (1 μg). At day 2, VSV-G pseudotyped viruses (5 μg of p24) were harvested and used to acutely infect Jurkat cells (2×10^6 cells). Two days after infection, viruses were harvested, and p24 content was measured by ELISA (PerkinElmer). Viral infections were conducted in triplicate with 10 or 100 ng of p24 derived from transfected 293T cells. The following proviral constructs were used: wild-type HIV-1 pNL4.3 […] tropic[WT], pNL4.3 ANef, pNL4.3 AVpu, pNL4.3 ANefAVpu, and HIV-1 pBaL-1 CCR5(R5) tropic[WT].
(§5) CD4^+ T cell isolation as previously described by Geijtenbeek et al., Cell, 2000, 100:587-597. Human PBMC were purified from fresh blood by banding on Ficoll-Hypaque (30 min, 800 g, 25° C.; Amersham Biosciences). Primary human CD4^+ T cells were purified from PBMC by positive selection with anti-CD4 Dynabeads and subsequent release using Detachabead (Dynal Biotech). […]
(§6) Cells were treated with 3 μM BIT225 or DMSO control, and expression of CD28, CCR7, CD80 and CD86 measured by flow cytometry at 24, 48 and 72 hour time points. […]

[4] = test system: CCR7 on CD4^+ T cells infected with HIV-1 NL4-3; assay: Plasma membrane CCR7 expression on HIV-1 NL4-3 infected CD4+ T cells, flow cytometry; assay type: cell-based, human
Procedure: as §4, §5, §6

[5] = test system: CD80 on MDM infected with HIV-1 NL4-3; assay: Plasma membrane CD80 expression on HIV-1 NL4-3 infected MDM, flow cytometry; assay type: cell-based, human
Procedure: as §4
(§7) Blood-derived CD4^+ T lymphocytes and MDM were isolated as described in Saphire et al., J Virol 2001, 75:9187-9200. CD4^+ T cells and monocytes were extracted from the blood of three donors that were CCR5-Delta32 negative. […]
as §6

[6] = test system: CD86 on MDM infected with HIV-1 NL4-3; assay: Plasma membrane CD86 expression on HIV-1 NL4-3 infected MDM, flow cytometry; assay type: cell-based, human
Procedure: as §4, §7, §6

[7] = 3 μM BIT225, ΔNefΔVpu HIV-1 NL4-3 double mutant

## Cn1cc(-c2cccc3cc(C(=O)NC(=N)N)ccc23)cn1 [BIT225, N-carbamimidoyl-5-(1-methylpyrazol-4-yl)naphthalene-2-carboxamide]
IL-17F
  IL-17F production versus placebo: no difference between cohorts
TNF-α
  TNF-α versus placebo: no statistical differences
IL-1 B
  IL-1 B production versus placebo: no statistical differences
[1]; 100 and 200 mg QD cohorts with ART, 12 weeks
  Tolerability / safety: safe and well tolerated
[1]; BIT225 100 mg cohort
  QTcB in one discontinued subject (mild QTcB prolongation, Day 17), considered not related to BIT225 or Atripla: > 480 ms
  Subjects who discontinued the study early due to AEs: Two
[1]; all cohorts
  Serious AEs or deaths: no serious AEs (SAEs) or deaths
[2]; co-administration (results not shown)
  Effect of BIT225 on the PK characteristics of Atripla (ART): did not significantly affect; also recorded: no significant impact
[2]; intensive PK sampling, 100 mg cohort
  Plasma exposures: within the expected timeframes and concentration ranges
[3]
  CD28 expression on CD4+ T cells: partial restoration
[4]; 3 μM BIT225, WT HIV-1 NL4-3-infected cells, dependent on Vpu expression
  CCR7 expression on CD4+ T cells: partial restoration
[4]; 3 μM BIT225, ΔVpu virus
  CCR7 downregulation by Nef expression alone: not affected
[5]; 3 μM BIT225, WT or ΔNef virus infected cells (express Vpu)
  Plasma membrane CD80 expression on MDM: partial restoration
[5]; [7]
  Plasma membrane CD80 expression on MDM: no observable effect
[6]; 3 μM BIT225, WT or ΔNef virus infected cells
  Plasma membrane CD86 expression on MDM: partial restoration
[6]; [7]
  Plasma membrane CD86 expression on MDM: no observable effect
